A value given as a limit tells only on which side of the number the result lay.

The test system of one data set is Apis mellifera. To be noted: acute, mortality.
A further data set has as its system Bibionidae. The settings on record: chronic/long-term; duration: 28 days; other.
In another data set the test system is Folsomia candida. To be noted: chronic/long-term; duration: 4 weeks; reproduction.
The subject of another data set is Tagia sp. The settings on record: mortality.
The next data set relates to Mus musculus. To be noted: acute; oral; mortality.
A further data set concerns Oryctolagus sp. The settings on record: developmental; development.

Take `O=S(=O)(O)O.Oc1cccc2cccnc12.Oc1cccc2cccnc12` [8-Hydroxyquinoline sulfate]: the LD50 in the data set with Apis mellifera (dermal) is above 100 µg/piece; in the data set on Apis mellifera (oral, unspecified) it was above 68.6 µg/piece. Further, the NOEC in the data set on Bibionidae came out at 167 mg/L; with Folsomia candida it was 52.4 mg/kg; with Oncorhynchus mykiss (chronic/long-term, duration: 28 days, development) it was 10.5 µg/L; in the data set on Tagia sp. (chronic/long-term), 417 mg/kg. In addition, the LC50 is 2.68 µg/mL with Oncorhynchus mykiss (acute, duration: 96 hours, mortality) and above 409 mg/kg in the data set with Tagia sp. (acute, duration: 14 days).

The NOAEL is the highest dose or exposure tested at which no adverse effect was seen. With `Oc1cccc2cccnc12` [8-Hydroxyquinoline], the LD50 in the data set with Coturnix japonica (acute, oral, diet, mortality) was above 1070 mg/kg-day; in the data set with Mus musculus, 177 mg/kg-day. For the same compound, the LC50 with Coturnix japonica (acute, oral, mortality) was determined as 311 mg/kg-day. Besides, the no observed adverse effect level (NOAEL) in the data set on Coturnix japonica (chronic) stood at 2.78 mg/kg-day; in the data set with Oryctolagus sp., 5 mg/kg-day; in the data set on Rattus norvegicus (chronic, duration: 2 years, body weight) it was 73 mg/kg-day; with Rattus norvegicus (subchronic, duration: 90 days, oral, hematological) it was 97.7 mg/kg-day.

The values above are taken from EPA's ToxValDB 9.5 (doi:10.2903/j.efsa.2016.4493).
